Assay results from ChEMBL document CHEMBL1201862, “PubChem BioAssay data set” (2004).
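Compound exposure: 48 hours, 5 concentrations, 96-well plates. Abbreviation: GI50, concentration required for 50% inhibition of growth.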 The source made the active and inactive calls. Rule as the data show it: active = GI50 up to about 1.1 µM and inactive = higher.

Experiments:
Assay in all cases: NCI anticancer screen, dose series, 48 h
[1] = system: K562
[2] = system: UO-31
[3] = system: UACC-62
[4] = system: ACHN
[5] = system: COLO 205
[6] = system: 786-0
[7] = system: HOP-62
[8] = system: HCT-116
[9] = system: HT-29
[10] = system: Hs-578T
[11] = system: PC-3
[12] = system: SF-539
[13] = system: SF-295
[14] = system: A549
[15] = system: NCI-H460
[16] = system: LOX IMVI
[17] = system: OVCAR-4
[18] = system: CAKI-1
[19] = system: HOP-92

Measured: GI50

Cc1cc(S(=O)(=O)Nc2nnc3ccccn23)c(S)cc1Cl
inactive: [1] > 100 µM | [2] > 100 µM | [3] > 100 µM | [4] > 100 µM | [5] > 100 µM | [6] > 100 µM | [7] 56.6 µM | [8] > 100 µM | [9] > 100 µM | [10] > 100 µM | [11] > 100 µM | [12] > 100 µM | [13] 25.9 µM | [14] 37.2 µM | [15] 40.1 µM | [16] > 100 µM | [17] > 100 µM

COc1ccc2oc(-c3ccncc3)cc(=O)c2c1
inactive: [1] > 100 µM | [2] > 100 µM | [18] 33.2 µM | [19] 37.5 µM | [3] 65.2 µM | [4] > 100 µM | [5] > 100 µM | [6] > 100 µM | [7] > 100 µM | [8] > 100 µM | [9] > 100 µM | [13] > 100 µM | [15] > 100 µM | [16] 57.5 µM | [17] > 100 µM

COc1ccc2c(c1)CC[C@@H]1[C@@H]2CC[C@]2(C)C(=O)/C(=C/c3cc(OC)c(OC)c(OC)c3)C[C@@H]12
inactive: [2] 47.2 µM | [18] 27.7 µM | [19] 22.2 µM | [3] 30.2 µM | [4] 21.7 µM | [5] 87.1 µM | [6] 19.2 µM | [7] 17 µM | [8] 31.6 µM | [11] 14 µM | [12] 28.2 µM | [13] 29.4 µM | [14] 40.9 µM | [15] 31.8 µM | [17] 40.4 µM

C=CCOCn1cc(F)c(=O)[nH]c1=O
inactive: [1] > 100 µM | [2] > 100 µM | [18] > 100 µM | [3] > 100 µM | [4] > 100 µM | [5] > 100 µM | [6] > 100 µM | [7] > 100 µM | [8] > 100 µM | [9] > 100 µM | [10] > 100 µM | [11] > 100 µM | [12] > 100 µM | [13] > 100 µM | [14] > 100 µM | [15] > 100 µM | [16] > 100 µM

CCOC(=O)C1(C/C=C\CBr)CCCCCCC1=O (centres undefined)
inactive: [2] > 100 µM | [18] > 100 µM | [3] > 100 µM | [4] > 100 µM | [5] > 100 µM | [6] > 100 µM | [7] > 100 µM | [8] > 100 µM | [9] > 100 µM | [10] > 100 µM | [11] > 100 µM | [12] > 100 µM | [13] > 100 µM | [14] > 100 µM | [16] > 100 µM | [17] > 100 µM

O=C1N/C(=N/N=C\c2ccccc2)N/C1=C/c1ccc(Cl)cc1
inactive: [1] 34 µM | [2] 16.2 µM | [18] 33.2 µM | [4] 13.8 µM | [5] 32.2 µM | [6] 29.8 µM | [7] 17.1 µM | [8] 26.9 µM | [9] 33 µM | [10] 20.5 µM | [11] 18.4 µM | [12] 23.9 µM | [13] 25.7 µM | [14] 25.6 µM | [15] 18.4 µM | [16] 26.1 µM | [17] 12.8 µM

CCOC(=O)c1ccc2c(=O)n3c(C(=O)OCC)ccc3c(=O)n12
inactive: [1] > 100 µM | [2] > 100 µM | [18] > 100 µM | [3] > 100 µM | [4] > 100 µM | [5] > 100 µM | [6] > 100 µM | [7] > 100 µM | [8] > 100 µM | [9] > 100 µM | [10] > 100 µM | [11] > 100 µM | [13] > 100 µM | [14] > 100 µM | [15] > 100 µM | [16] > 100 µM | [17] > 100 µM

CN1CCOC(c2ccc(Cl)cc2)O1 (centres undefined)
inactive: [1] > 100 µM | [2] > 100 µM | [18] > 100 µM | [19] > 100 µM | [3] > 100 µM | [4] > 100 µM | [5] > 100 µM | [7] > 100 µM | [9] > 100 µM | [11] > 100 µM | [12] > 100 µM | [13] > 100 µM | [14] > 100 µM | [15] > 100 µM | [17] > 100 µM

C[C@@H]1OC(=O)/C(=C\N(C)C)[C@H]2CC(=O)N(CCc3cn(S(=O)(=O)C(F)(F)F)c4ccccc34)C[C@H]12
inactive: [1] > 100 µM | [2] > 100 µM | [18] > 100 µM | [19] > 100 µM | [4] > 100 µM | [5] > 100 µM | [6] > 100 µM | [7] > 100 µM | [8] > 100 µM | [11] > 100 µM | [12] > 100 µM | [13] > 100 µM | [14] > 100 µM | [15] > 100 µM | [16] > 100 µM | [17] > 100 µM

CNC1(c2cc3ccccc3s2)CCCCC1
inactive: [1] 31.8 µM | [2] 46.9 µM | [18] 42.1 µM | [19] 14.3 µM | [3] 20.6 µM | [4] 42.6 µM | [5] 18.9 µM | [6] 19.2 µM | [7] 33.9 µM | [8] 41.5 µM | [9] 14.8 µM | [11] 18.1 µM | [12] 20.4 µM | [13] 25 µM | [14] 48.1 µM | [15] 17.7 µM | [16] 19.9 µM | [17] 27.7 µM

NC(=O)CCCC(NCc1c2ccccc2nc2ccccc12)C(=O)O (centres undefined)
inactive: [1] 26.6 µM | [18] 27.5 µM | [19] 27.5 µM | [4] 49.8 µM | [5] 56.4 µM | [6] 42.7 µM | [7] > 100 µM | [8] > 10 µM | [9] 36.2 µM | [12] 32.7 µM | [13] 83.4 µM | [14] 56.1 µM | [15] 39.5 µM | [16] 30.4 µM | [17] 11.1 µM

COc1ccc(OC)c(CC(C)N)c1 (centres undefined)
inactive: [1] > 100 µM | [2] > 100 µM | [18] > 100 µM | [3] > 100 µM | [4] > 100 µM | [5] > 100 µM | [6] > 100 µM | [7] > 100 µM | [8] > 100 µM | [9] > 100 µM | [12] > 100 µM | [13] > 100 µM | [14] > 100 µM | [15] > 100 µM | [16] > 100 µM | [17] > 100 µM
